What follows are compounds tested on PC3 cells (assay: NAMPT Cell Proliferation Assay). Details: Homo sapiens, PC-3, 120 h, 5 days incubation, cell viability by Cell Titer Glo.
Type: cell-based
Method in brief: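 Five-day CellTiter-Glo viability readout in PC3 cells grown in RPMI/10% heat-inactivated FBS. Compounds added after overnight attachment as a 10-fold dilution series, […]. Percent inhibition fitted to sigmoidal dose-response to derive IC50.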

Compared with `O=C(Nc1ccc(C2CCN(C(=O)c3ccc(F)cc3)CC2)cc1)C1CN(c2ccc(F)nn2)C1` [Example 823, N-{4-[1-(4-fluorobenzoyl)piperidin-4-yl]phenyl}-1-(6-fluoropyridazin-3-yl)azetidine-3-carboxamide], `O=C(Nc1ccc(C2CCN(C(=O)c3ccc(F)cc3)CC2)cc1F)C1CN(c2cccnn2)C1` [Example 832, N-{2-fluoro-4-[1-(4-fluorobenzoyl)piperidin-4-yl]phenyl}-1-(pyridazin-3-yl)azetidine-3-carboxamide] is 15-fold lower in IC50: 247 nM for the first, 16.7 nM for the second. The second is the more potent here.

`O=C(Nc1ccc(O[C@H]2CCN(C(=O)c3ccccc3)C2)cc1)[C@H]1CCN(c2cccnn2)C1` [Example 824, (3S)—N-(4-{[(3S)-1-benzoylpyrrolidin-3-yl]oxy}phenyl)-1-(pyridazin-3-yl)pyrrolidine-3-carboxamide] and `O=C(Nc1ccc(O[C@H]2CCN(C(=O)c3ccccc3F)C2)cc1)[C@H]1CCN(c2cccnn2)C1` [Example 825, (3S)—N-(4-{[(3S)-1-(2-fluorobenzoyl)pyrrolidin-3-yl]oxy}phenyl)-1-(pyridazin-3-yl)pyrrolidine-3-carboxamide] are within 1.5-fold of each other in IC50: 70.6 nM for the first, 62.3 nM for the second.

`O=C(Nc1ccc(O[C@H]2CCN(C(=O)c3cc(F)cc(F)c3)C2)cc1)[C@H]1CCN(c2cccnn2)C1` [Example 826, (3S)—N-(4-{[(3S)-1-(3,5-difluorobenzoyl)pyrrolidin-3-yl]oxy}phenyl)-1-(pyridazin-3-yl)pyrrolidine-3-carboxamide] and `CC(C)(C)C(=O)N1CC[C@H](Oc2ccc(NC(=O)[C@H]3CCN(c4cccnn4)C3)cc2)C1` [Example 827, (3S)—N-(4-{[(3S)-1-(2,2-dimethylpropanoyl)pyrrolidin-3-yl]oxy}phenyl)-1-(pyridazin-3-yl)pyrrolidine-3-carboxamide] are within 1.5-fold of each other in IC50: 98.3 nM for the first, 73.7 nM for the second.

Going from `O=C(Nc1ccc(C2CCN(C(=O)c3ccccc3F)CC2)cc1F)C1CN(c2cccnn2)C1` [Example 828, N-{2-fluoro-4-[1-(2-fluorobenzoyl)piperidin-4-yl]phenyl}-1-(pyridazin-3-yl)azetidine-3-carboxamide] to `Cc1ccccc1C(=O)N1CCC(c2ccc(NC(=O)C3CN(c4cccnn4)C3)c(F)c2)CC1` [Example 831, N-{2-fluoro-4-[1-(2-methylbenzoyl)piperidin-4-yl]phenyl}-1-(pyridazin-3-yl)azetidine-3-carboxamide], the IC50 rises from 0.826 nM to 7.25 nM (8.8-fold).

Going from `O=C(Nc1ccc(C2CCN(C(=O)c3ccccc3)CC2)cc1F)C1CN(c2cccnn2)C1` [Example 829, N-[4-(1-benzoylpiperidin-4-yl)-2-fluorophenyl]-1-(pyridazin-3-yl)azetidine-3-carboxamide] to `O=C(Nc1ccc(C2CCN(C(=O)c3cccc(F)c3)CC2)cc1F)C1CN(c2cccnn2)C1` [Example 830, N-{2-fluoro-4-[1-(3-fluorobenzoyl)piperidin-4-yl]phenyl}-1-(pyridazin-3-yl)azetidine-3-carboxamide], the IC50 rises from 2.95 nM to 7.96 nM (2.7-fold). The first is the more potent here.

Going from `O=C(Nc1ccc(C2CCN(C(=O)c3ccc(F)cc3F)CC2)cc1F)C1CN(c2cccnn2)C1` [Example 833, N-{4-[1-(2,4-difluorobenzoyl)piperidin-4-yl]-2-fluorophenyl}-1-(pyridazin-3-yl)azetidine-3-carboxamide] to `O=C(Nc1ccc(C2CCN(C(=O)c3cc(F)cc(F)c3)CC2)cc1F)C1CN(c2cccnn2)C1` [Example 834, N-{4-[1-(3,5-difluorobenzoyl)piperidin-4-yl]-2-fluorophenyl}-1-(pyridazin-3-yl)azetidine-3-carboxamide], the IC50 rises from 6.67 nM to 14.4 nM (2.2-fold).

Going from `CC(C)(C)CC(=O)N1CCC(c2ccc(NC(=O)C3CN(c4cccnn4)C3)c(F)c2)CC1` [Example 835, N-{4-[1-(3,3-dimethylbutanoyl)piperidin-4-yl]-2-fluorophenyl}-1-(pyridazin-3-yl)azetidine-3-carboxamide] to `Cc1ccc(N2CC(C(=O)Nc3ccc(C4CCN(C(=O)C(C)(C)C)CC4)cc3)C2)nn1` [Example 852, N-{4-[1-(2,2-dimethylpropanoyl)piperidin-4-yl]phenyl}-1-(6-methylpyridazin-3-yl)azetidine-3-carboxamide], the IC50 rises from 2.35 nM to 12.4 nM (5.3-fold).

`Cc1ccc(N2CC[C@H](C(=O)Nc3ccc(OC4CCN(C(=O)c5ccccc5F)CC4)cc3)C2)nn1` [Example 836, (3S)—N-(4-{[1-(2-fluorobenzoyl)piperidin-4-yl]oxy}phenyl)-1-(6-methylpyridazin-3-yl)pyrrolidine-3-carboxamide] and `Cc1ccc(N2CC[C@H](C(=O)Nc3ccc(OC4CCN(C(=O)c5ccccc5)CC4)cc3)C2)nn1` [Example 837, (3S)—N-{4-[(1-benzoylpiperidin-4-yl)oxy]phenyl}-1-(6-methylpyridazin-3-yl)pyrrolidine-3-carboxamide] are within 1.5-fold of each other in IC50: 658 nM for the first, 769 nM for the second.

`Cc1ccc(N2CC[C@H](C(=O)Nc3ccc(OC4CCN(C(=O)C(C)(C)C)CC4)cc3)C2)nn1` [Example 838, (3S)—N-(4-{[1-(2,2-dimethylpropanoyl)piperidin-4-yl]oxy}phenyl)-1-(6-methylpyridazin-3-yl)pyrrolidine-3-carboxamide] and `Cc1ccc(N2CC[C@H](C(=O)Nc3ccc(OC4CCN(C(=O)C5CCCCC5)CC4)cc3)C2)nn1` [Example 839, (3S)—N-(4-{[1-(cyclohexylcarbonyl)piperidin-4-yl]oxy}-phenyl)-1-(6-methylpyridazin-3-yl)pyrrolidine-3-carboxamide] are within 1.5-fold of each other in IC50: 1770 nM for the first, 2000 nM for the second.

`CC(C)C(=O)N1C2CCC1CC(c1ccc(NC(=O)C3CN(c4cccnn4)C3)cc1)C2` (stereo not shown) [Example 840, N-{4-[8-(2-methylpropanoyl)-8-azabicyclo[3.2.1]oct-3-yl]phenyl}-1-(pyridazin-3-yl)azetidine-3-carboxamide] and `CC(C)(C)C(=O)N1C2CCC1CC(c1ccc(NC(=O)C3CN(c4cccnn4)C3)cc1)C2` (stereo not shown) [Example 844, N-{4-[8-(2,2-dimethylpropanoyl)-8-azabicyclo[3.2.1]oct-3-yl]phenyl}-1-(pyridazin-3-yl)azetidine-3-carboxamide] are within 1.5-fold of each other in IC50: 2.8 nM for the first, 2.52 nM for the second.

First: O=C(Nc1ccc(C2CC3CCC(C2)N3C(=O)CCC(F)(F)F)cc1)C1CN(c2cccnn2)C1 (stereo not shown) [Example 841, 1-(pyridazin-3-yl)-N-{4-[8-(4,4,4-trifluorobutanoyl)-8-azabicyclo[3.2.1]oct-3-yl]phenyl}azetidine-3-carboxamide]
Second: CC1(C(=O)N2C3CCC2CC(c2ccc(NC(=O)C4CN(c5cccnn5)C4)cc2)C3)CC1 (stereo not shown) [Example 845, N-(4-{8-[(1-methylcyclopropyl)carbonyl]-8-azabicyclo[3.2.1]oct-3-yl}phenyl)-1-(pyridazin-3-yl)azetidine-3-carboxamide]
The IC50 of the first is 1.7-fold higher: 3.55 nM for the first, 2.09 nM for the second. The second is the more potent here.

`O=C(Nc1ccc(C2CC3CCC(C2)N3C(=O)c2ccccc2)cc1)C1CN(c2cccnn2)C1` (stereo not shown) [Example 842, N-[4-(8-benzoyl-8-azabicyclo[3.2.1]oct-3-yl)phenyl]-1-(pyridazin-3-yl)azetidine-3-carboxamide] and `O=C(Nc1ccc(C2CC3CCC(C2)N3C(=O)c2ccccc2F)cc1)C1CN(c2cccnn2)C1` (stereo not shown) [Example 843, N-{4-[8-(2-fluorobenzoyl)-8-azabicyclo[3.2.1]oct-3-yl]phenyl}-1-(pyridazin-3-yl)azetidine-3-carboxamide] are within 1.5-fold of each other in IC50: 0.665 nM for the first, 0.61 nM for the second.

Going from `COCCn1nc(CC(C)C)cc1-c1ccc(NC(=O)C2CN(c3cccnn3)C2)cc1` [Example 846, N-{4-[1-(2-methoxyethyl)-3-(2-methylpropyl)-1H-pyrazol-5-yl]phenyl}-1-(pyridazin-3-yl)azetidine-3-carboxamide] to `O=C(Nc1ccc(C2(F)CCN(C(=O)OCc3ccccc3)CC2)cc1)C1CN(c2ccc(Cl)nn2)C1` [Example 853, benzyl 4-[4-({[1-(6-chloropyridazin-3-yl)azetidin-3-yl]carbonyl}amino)phenyl]-4-fluoropiperidine-1-carboxylate], the IC50 rises from 7.24 nM to greater than 10000 nM.

First: CC(C)(C)C(=O)N1CCC(c2ccc(C(=O)NC3CN(c4cccnn4)C3)s2)CC1 [Example 847, 5-[1-(2,2-dimethylpropanoyl)piperidin-4-yl]-N-[1-(pyridazin-3-yl)azetidin-3-yl]thiophene-2-carboxamide]
Second: CCC(C)(C)C(=O)N1CCC(c2ccc(C(=O)NC3CN(c4cccnn4)C3)s2)CC1 [Example 850, 5-[1-(2,2-dimethylbutanoyl)piperidin-4-yl]-N-[1-(pyridazin-3-yl)azetidin-3-yl]thiophene-2-carboxamide]
The IC50 of the first is 1.6-fold higher: 115 nM for the first, 70.5 nM for the second.

`CC1(C(=O)N2CCC(c3ccc(C(=O)NC4CN(c5cccnn5)C4)s3)CC2)CC1` [Example 848, 5-{1-[(1-methylcyclopropyl)carbonyl]piperidin-4-yl}-N-[1-(pyridazin-3-yl)azetidin-3-yl]thiophene-2-carboxamide] and `O=C(NC1CN(c2cccnn2)C1)c1ccc(C2CCN(C(=O)C3CC3)CC2)s1` [Example 856, 5-[1-(cyclopropylcarbonyl)piperidin-4-yl]-N-[1-(pyridazin-3-yl)azetidin-3-yl]thiophene-2-carboxamide] are within 1.5-fold of each other in IC50: 609 nM for the first, 729 nM for the second.

`O=C(NC1CN(c2cccnn2)C1)c1ccc(C2CCN(C(=O)CC(F)(F)F)CC2)s1` [Example 849, N-[1-(pyridazin-3-yl)azetidin-3-yl]-5-[1-(3,3,3-trifluoropropanoyl)piperidin-4-yl]thiophene-2-carboxamide] and `O=C(NC1CN(c2cccnn2)C1)c1ccc(C2CCN(C(=O)CCC(F)(F)F)CC2)s1` [Example 855, N-[1-(pyridazin-3-yl)azetidin-3-yl]-5-[1-(4,4,4-trifluorobutanoyl)piperidin-4-yl]thiophene-2-carboxamide] are within 1.5-fold of each other in IC50: 685 nM for the first, 747 nM for the second.

Compared with `Cc1ccc(N2CC(C(=O)Nc3ccc(C4CCN(C(=O)c5ccccc5F)CC4)cc3)C2)nn1` [Example 851, N-{4-[1-(2-fluorobenzoyl)piperidin-4-yl]phenyl}-1-(6-methylpyridazin-3-yl)azetidine-3-carboxamide], `O=C(Nc1ccc(C2(O)CCN(C(=O)OCc3ccccc3)CC2)cc1)C1CN(c2ccc(Cl)nn2)C1` [Example 854, benzyl 4-[4-({[1-(6-chloropyridazin-3-yl)azetidin-3-yl]carbonyl}amino)phenyl]-4-hydroxypiperidine-1-carboxylate] is higher in IC50: 2.75 nM for the first, greater than 10000 nM for the second. The first is the more potent here.

From patent publication US20130303509A1, “NAMPT INHIBITORS” (AbbVie Inc., priority 2012, published 2013)
